Test results published in paper PMC10892660 (Pharmaceutics, 2024).
Where two headings read alike, the source gives them in different places.

Assays:
[1] = target: T1, CYP3A2 (Rattus norvegicus, UniProt P05183); assay: Saxagliptin metabolic stability with recombinant rat CYP3A2; type: in vitro ADME; conditions: rat, recombinant rat CYP3A2, pH 7.4; read-out: half-life after incubation with rCYP3A2 reaction mixture
T1 construct: purchased Xenotech (Lenexa, KS, USA)
T1 sequence (P05183 1-504): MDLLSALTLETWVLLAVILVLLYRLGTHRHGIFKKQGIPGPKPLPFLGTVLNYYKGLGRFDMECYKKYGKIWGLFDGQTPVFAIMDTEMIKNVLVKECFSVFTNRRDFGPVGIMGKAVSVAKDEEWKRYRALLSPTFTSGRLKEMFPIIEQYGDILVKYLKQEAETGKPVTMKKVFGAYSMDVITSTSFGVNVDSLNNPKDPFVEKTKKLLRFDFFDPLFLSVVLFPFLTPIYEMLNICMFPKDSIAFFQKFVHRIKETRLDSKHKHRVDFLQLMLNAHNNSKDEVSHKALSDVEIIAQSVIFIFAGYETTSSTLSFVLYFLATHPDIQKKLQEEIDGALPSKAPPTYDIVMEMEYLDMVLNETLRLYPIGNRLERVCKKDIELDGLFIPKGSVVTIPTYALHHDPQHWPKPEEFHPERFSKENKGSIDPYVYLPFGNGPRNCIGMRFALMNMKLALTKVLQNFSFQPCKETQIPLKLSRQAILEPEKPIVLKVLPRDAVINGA
Description: (§1) After initiating the reaction by adding NADPH solution, the sampling was carried out at 37 °C for 0, 5, 10, 20, and 30 min in triplicate and stopped with methanol containing 200 ng/mL tolbutamide as an internal standard (IS) for HPLC analysis.

[2] = target: T2, recombinant rat CYP3A2 (rCYP3A2) (Rattus norvegicus, UniProt P05183); assay: as above; type: in vitro ADME; conditions: in-house data
T2 construct: purchased Xenotech (Lenexa, KS, USA)
T2 sequence (P05183 1-504): T1 sequence (P05183 1-504)
Description: as §1

[3] = Non-clinical drug–drug interaction / oral pharmacokinetic study in Sprague–Dawley rats; type: in vivo, rat; conditions: for AUC(0-inf) / CL/F / Cmax / Tmax / half-life: male, Sprague-Dawley, plasma
Description: Male Sprague–Dawley (SD) rats, 7 weeks old (180–210 g), were purchased from Hana Biotech (Pyeongtaek, Republic of Korea). The rats were kept in a room with a relative humidity of 50–60%, a temperature of 21 ± 2 °C, and a 12 h light/dark cycle and were acclimatized to these conditions for a week. The protocol for these experiments was approved by Inje University’s Animal Care Committee (Inje 2022-012, Gimhae, Republic of Korea).
The drug was orally administered via a feeding tube, employing a total dosing volume of 5 mL/kg across all groups. Blood samples (approximately 200 μL) were collected from the jugular vein at 0.25, 0.5, 1, 2, 3, 4, 6, 8, 12, and 24 h post-dose. […] The blood samples were promptly centrifuged at 15,000 rpm for 5 min at 4 °C. The resulting plasma was stored at -70 °C until HPLC or LC-MS/MS analysis.
The calculated pharmacokinetic parameters included the following: area under the time–plasma concentration curve (AUC) between from0 to infinity (AUCinf); maximum plasma concentration (Cmax); time to reach maximum concentration (Tmax); terminal half-life (t1/2); oral clearance (CL/F). Pharmacokinetic parameters are expressed as the mean ± standard deviation (SD). For statistical analysis, a Student’s t-test was performed using GraphPad Prism software (San Diego, CA, USA) with a significance threshold of less than 0.05.
The LC-MS/MS system consisted of an Agilent 6490 triple quadrupole mass spectroscopy system and a 1290 infinity HPLC system (Agilent Technologies, Santa Clara, CA, USA). The separation of compounds was accomplished by a reversed-phase column (Synergi Polar-RP 80 Å, 150 × 2.0 mm, 4 μm, Phenomenex, Torrance, CA, USA) with a security guard. […] Multiple reaction monitoring (MRM) modes were used for the quantitative study of the compound’s precursor ion and product ion transitions. […] In addition, 1′-hydroxy midazolam was analyzed under the following conditions. The mobile phase was a mixture of 0.1% formic acid in water and ACN (50:50 v/v), with a flow rate of 0.2 mL/min. The column temperature was kept constant at 25 °C. The following ion values (m/z) were obtained by monitoring the transitions: 1′-hydroxy midazolam, 342.0 → 203.1; phenacetin (IS), 180.0 → 162.2. The data analysis was achieved using MassHunter software version A.06.00 (Agilent Technologies, Santa Clara, CA, USA).
The HPLC system included a degasser pump (L-2130), a column oven (L-2300), an autosampler (L-2200), and a diode array detector (L-2455). The analysis was carried out using the software Hitachi LaChrom D-2000 Elite (Merck-Hitachi, Tokyo, Japan). The separation was accomplished using a reversed-phase column (Synchronis C18 150 × 4.6 mm, 5 μm, Thermo Scientific, Waltham, MA, USA) with a guard column (security guard C18 4 × 2.0 mm, Phenomenex, Torrance, CA, USA). The mobile phase was comprised of phases A (ACN) and B (0.015 M potassium phosphate monobasic (KH2PO4) with 2.8 mM triethylamine in water). The mobile phase was A:B = 60:40, with a flow rate of 1.5 mL/min. The temperature of the column oven controller was maintained at 40 °C, and 50 μL of sample was injected into the system.

[4] = cited from earlier work
[5] = cited from earlier work; remark: listed apart in the source
[6] = cited from earlier work; remark: listed apart in the source
[7] = cited from earlier work; remark: listed apart in the source
[8] = cited from earlier work; remark: listed apart in the source
[9] = system: hCYP3A4; parameters: method as in PMID 22496391; conditions: saxagliptin, cited from earlier work
[10] = system: hCYP3A5; parameters: method as in PMID 22496391; conditions: saxagliptin, cited from earlier work
[11] = saxagliptin, cited from earlier work
[12] = system: CYP3A4; conditions: nicardipine, cited from earlier work
[13] = saxagliptin, rat PBPK model input
[14] = saxagliptin, human PBPK model input
[15] = nicardipine, input of rat and human models
[16] = nicardipine, rat and human models

N#C[C@@H]1C[C@@H]2C[C@@H]2N1C(=O)[C@@H](N)C12CC3CC(CC(O)(C3)C1)C2 [saxagliptin]
half-life at 5 μM [1]: 0.58 h | CLint rCYP3A2, reference ([2]; saxagliptin 5 μM, 10 pmol CYP/mL, 1 mM NADPH, 37 °C): 1.99 μL/min/pmol CYP | CLint rCYP3A2, input [2, 13]: 1.99 μL/min/pmol CYP | AUC(0-inf) ([3]; rat, po, 5 mg/kg, AUCinf of saxagliptin, alone, SXG 5 mg/kg alone, mean ± SD): 156 ± 22.9 ng·h/mL | AUC(0-inf) ([3]; rat, po, 5 mg/kg, AUCinf of saxagliptin, co-administered with nicardipine, rat, po, SXG 5 mg/kg + NCD 15 mg/kg, mean ± SD): 408 ± 213 ng·h/mL | CL/F ([3]; rat, po, 5 mg/kg, CL/F of saxagliptin, alone, SXG 5 mg/kg alone, mean ± SD): 542 mL/min/kg | CL/F ([3]; rat, po, 5 mg/kg, CL/F of saxagliptin, co-administered with nicardipine, rat, po, SXG 5 mg/kg + NCD 15 mg/kg, mean ± SD): 238 mL/min/kg | Cmax ([3]; rat, po, 5 mg/kg, Cmax of saxagliptin, alone, SXG 5 mg/kg alone, mean ± SD): 98.5 ± 15.1 ng/mL | Cmax ([3]; rat, po, 5 mg/kg, Cmax of saxagliptin, co-administered with nicardipine, rat, po, SXG 5 mg/kg + NCD 15 mg/kg, mean ± SD): 281 ± 147 ng/mL | Tmax ([3]; rat, po, 5 mg/kg, Tmax of saxagliptin, alone, SXG 5 mg/kg alone, mean ± SD): 0.417 ± 0.129 h | Tmax ([3]; rat, po, 5 mg/kg, Tmax of saxagliptin, co-administered with nicardipine, rat, po, SXG 5 mg/kg + NCD 15 mg/kg, mean ± SD): 0.464 ± 0.094 h | half-life ([3]; rat, po, 5 mg/kg, t1/2 of saxagliptin, alone, SXG 5 mg/kg alone, mean ± SD): 1.82 ± 0.737 h | half-life ([3]; rat, po, 5 mg/kg, t1/2 of saxagliptin, co-administered with nicardipine, rat, po, SXG 5 mg/kg + NCD 15 mg/kg, mean ± SD): 2.97 ± 1.23 h | Cmax ([3]; rat, po, Cmax of saxagliptin, co-administered with nicardipine, rat, po, SXG 5 mg/kg + NCD 15 mg/kg, mean ± SD): 280 ± 147 ng/mL | AUCinf of saxagliptin, alone ([3]; rat, po, SXG 5 mg/kg alone, mean ± SD, listed as SXG): 157 ± 23.1 ng·h/mL | increase of plasma concentration of saxagliptin in vivo ([3]; rats, co-administration with nicardipine): more than 2 fold | AUCinf observed ([4]; saxagliptin, human po 2.5 mg): 49.1 ng·h/mL | Cmax observed ([4]; saxagliptin, human po 2.5 mg): 7.89 ng/mL | t1/2 observed ([4]; saxagliptin, human po 2.5 mg): 7.21 h | Renal clearance, human, input [4, 14]: 1.9 mL/min/kg | Renal clearance, human, reference ([4]; saxagliptin, human): 1.9 mL/min/kg | pKa (compound type), input ([5]; saxagliptin, base, input of rat and human models): 7.9 (base) | pKa (compound type), reference ([5]; saxagliptin, base, rat and human models): 7.9 (base) | Solubility (ref-pH), input ([5]; saxagliptin, pH 7, input of rat and human models): 17.6 (pH 7) mg/mL | Solubility (ref-pH), reference ([5]; saxagliptin, pH 7, rat and human models): 17.6 (pH 7) mg/mL | Lipophilicity, reference ([5]; saxagliptin, reference value for rat and human PBPK models): −0.35 logD7.4 | Fraction unbound, rat, input [6, 13]: 0.82 | Fraction unbound, rat, reference ([6]; saxagliptin, rat): 0.82 | Fraction unbound, human, input [7, 14]: 1 | Fraction unbound, human, reference ([7]; saxagliptin, human): 1 | Specific intestinal permeability, reference ([8]; saxagliptin, rat and human models): 2.73 10^−6 cm/s | CLint hCYP3A4, input ([9]; human PBPK model input): 0.38 μL/min/pmol CYP | CLint hCYP3A4, reference ([9]; human): 0.38 μL/min/pmol CYP | CLint hCYP3A5, input ([10]; human PBPK model input): 0.09 μL/min/pmol CYP | CLint hCYP3A5, reference ([10]; human): 0.09 μL/min/pmol CYP | Renal clearance, rat, input ([11]; rat PBPK model input): 38 mL/min/kg | Renal clearance, rat, reference ([11]; rat): 38 mL/min/kg

COC(=O)C1=C(C)NC(C)=C(C(=O)OCCN(C)Cc2ccccc2)C1c1cccc([N+](=O)[O-])c1 (centres unmarked) [nicardipine]
AUC(0-inf) ([3]; rat, po, 15 mg/kg, AUCinf of nicardipine, 15 mg/kg alone, mean ± SD): 408 ± 121 ng·h/mL | CL/F ([3]; rat, po, 15 mg/kg, CL/F of nicardipine, 15 mg/kg alone, mean ± SD): 662 mL/min/kg | Cmax ([3]; rat, po, 15 mg/kg, Cmax of nicardipine, 15 mg/kg alone, mean ± SD): 132 ± 35.3 ng/mL | Tmax ([3]; rat, po, 15 mg/kg, Tmax of nicardipine, 15 mg/kg alone, mean ± SD): 0.357 ± 0.134 h | half-life ([3]; rat, po, 15 mg/kg, t1/2 of nicardipine, 15 mg/kg alone, mean ± SD): 5.76 ± 1.45 h | AUCinf observed ([4]; nicardipine, human po 40 mg): 163 ng·h/mL | Cmax observed ([4]; nicardipine, human po 40 mg): 58.8 ng/mL | t1/2 observed ([4]; nicardipine, human po 40 mg): 2.80 h | pKa (compound type), input value ([5]; nicardipine, base, input of rat and human models): 8.1 (base) | pKa (compound type), reference value ([5]; nicardipine, base, rat and human models): 8.1 (base) | Lipophilicity, input value [5, 15]: 4.6 logD7.4 | Solubility (ref-pH), input value ([5]; nicardipine, pH 7, input of rat and human models): 7.9 (pH 7) mg/mL | Solubility (ref-pH), reference value ([5]; nicardipine, pH 7, rat and human models): 7.9 (pH 7) mg/mL | Lipophilicity, reference value [5, 16]: 4.6 logD7.4 | Fraction unbound, rat, input value ([6]; nicardipine, rat PBPK model input): 0.084 | Fraction unbound, rat, reference value ([6]; nicardipine, rat plasma): 0.084 | Fraction unbound, human, input value ([7]; nicardipine, human PBPK model input): 0.01 | Fraction unbound, human, reference value ([7]; nicardipine, human plasma): 0.01 | Specific intestinal permeability, input value [8, 15]: 1.15 10^−6 cm/s | Specific intestinal permeability, reference value [8, 16]: 1.15 10^−6 cm/s | Ki ([12]; read-out: Ki CYP3A4, input value, human PBPK model input): […] | Ki ([12]; read-out: Ki CYP3A4, reference value, human): […]
